Experiments:
[1] = Selectivity index, ratio of CC50 for human MT2 cells to IC50 for HIV1 IIIB infected in human MT2 cells; assay type: toxicity, cell-based; conditions: read-out: Ratio CC50/IC50
[2] = Stability of compound in ammonium bicarbonate buffer at pH 7.8 at 0.1 mg/ml incubated for 24 hrs under at 37 degreeC in presence of pronase by HPLC analysis; assay type: physicochemical; conditions: pH 7.8, 24 h
[3] = test system: Human immunodeficiency virus 1; assay: Antiviral activity against HIV1 IIIB infected in human MT2 cells assessed as inhibition of viral growth incubated for 30 mins by ELISA assay; assay type: functional, organism-based; conditions: Human immunodeficiency virus 1, IIIB, MT2, 0.5 h
[4] = Cytotoxicity against human MT2 cells assessed as inhibition of cell growth measured after 3 days by CCK8 assay; assay type: toxicity, cell-based; conditions: time 3 day
[5] = test system: Human immunodeficiency virus 1; assay: Antiviral activity against HIV1 X4 […] MN/H9 (84US_MNp) clinical isolate infected in human MT2 cells assessed as inhibition of viral growth incubated for 30 mins by ELISA assay; assay type: functional, organism-based; conditions: Human immunodeficiency virus 1, X4 […] MN/H9 (84US_MNp), MT2, 0.5 h
[6] = test system: Human immunodeficiency virus 1; assay: Antiviral activity against HIV1 QA013.701.ENV.M12 clinical isolate infected in human TZM-bl cells assessed as inhibition of viral growth incubated for 48 hrs by luciferase based analysis; assay type: functional, organism-based; conditions: Human immunodeficiency virus 1, QA013.701.ENV.M12, TZM-bl
[7] = target: T1, Envelope glycoprotein gp160 (Human immunodeficiency virus 1, UniProt Q72502); assay: Binding affinity to HIV1 GP41 using GP41 NHR derived N36 peptide assessed as binding constant by fluorescence polarization assay
T1 sequence (Q72502 whole entry): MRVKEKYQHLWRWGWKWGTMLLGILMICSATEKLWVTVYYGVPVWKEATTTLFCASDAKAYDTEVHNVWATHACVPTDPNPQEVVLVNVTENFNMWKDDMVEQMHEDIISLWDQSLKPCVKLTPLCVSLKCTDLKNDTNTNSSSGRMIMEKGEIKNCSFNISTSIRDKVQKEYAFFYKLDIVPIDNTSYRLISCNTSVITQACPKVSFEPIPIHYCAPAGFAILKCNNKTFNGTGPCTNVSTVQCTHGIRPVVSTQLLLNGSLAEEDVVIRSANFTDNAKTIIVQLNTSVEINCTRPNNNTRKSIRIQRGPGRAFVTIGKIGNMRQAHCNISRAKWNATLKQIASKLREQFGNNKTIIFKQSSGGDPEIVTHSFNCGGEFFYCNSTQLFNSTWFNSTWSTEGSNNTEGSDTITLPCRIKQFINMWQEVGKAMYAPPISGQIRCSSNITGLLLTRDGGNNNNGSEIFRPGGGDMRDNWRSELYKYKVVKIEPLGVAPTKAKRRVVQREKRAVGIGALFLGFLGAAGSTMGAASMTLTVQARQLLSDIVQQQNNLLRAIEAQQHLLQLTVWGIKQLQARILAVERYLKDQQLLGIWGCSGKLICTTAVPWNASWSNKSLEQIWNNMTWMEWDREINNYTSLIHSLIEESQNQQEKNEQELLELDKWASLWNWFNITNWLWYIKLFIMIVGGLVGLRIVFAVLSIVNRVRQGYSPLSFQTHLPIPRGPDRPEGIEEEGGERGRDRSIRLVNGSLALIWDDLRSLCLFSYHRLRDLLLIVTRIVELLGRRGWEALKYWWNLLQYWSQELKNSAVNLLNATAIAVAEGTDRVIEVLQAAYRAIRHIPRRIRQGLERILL

[8] = Apparent permeability of the compound across gastrointestinal tract in PBS buffer at pH 7.4 at 50 uM by PAMPA analysis; assay type: ADME, tissue-based
[9] = Apparent permeability of the compound across gastrointestinal tract in PBS buffer at pH 5 at 50 uM by PAMPA analysis; assay type: ADME, tissue-based; conditions: for Papp at 50 µM: PAMPA, pH 5
[10] = test system: Human immunodeficiency virus 1; assay: Antiviral activity against HIV1 CRF02_AG Clone 33 clinical isolate infected in human TZM-bl cells assessed as inhibition of viral growth incubated for 48 hrs by luciferase based analysis; assay type: functional, organism-based; conditions: Human immunodeficiency virus 1, CRF02_AG Clone 33, TZM-bl
[11] = test system: Human immunodeficiency virus 1; assay: Antiviral activity against HIV1 Q259env.w6 clinical isolate infected in human TZM-bl cells assessed as inhibition of viral growth incubated for 48 hrs by luciferase based analysis; assay type: functional, organism-based; conditions: Human immunodeficiency virus 1, Q259env.w6, TZM-bl
[12] = test system: Human immunodeficiency virus 1; assay: Antiviral activity against HIV1 R5 […] US4/GS 007 (91US_4) clinical isolate infected in human CEMx174 5.25M7 cells assessed as inhibition of viral growth incubated for 30 mins by ELISA assay; assay type: functional, organism-based; conditions: Human immunodeficiency virus 1, R5 […] US4/GS 007 (91US_4), CEMx174 5.25M7, 0.5 h
[13] = test system: Human immunodeficiency virus 1; assay: Antiviral activity against HIV1 CRF02_AG Clone 278 clinical isolate infected in human TZM-bl cells assessed as inhibition of viral growth incubated for 48 hrs by luciferase based analysis; assay type: functional, organism-based; conditions: Human immunodeficiency virus 1, CRF02_AG Clone 278, TZM-bl
[14] = Apparent permeability of the compound across gastrointestinal tract in PBS buffer at pH 6.2 at 50 uM by PAMPA analysis; assay type: ADME, tissue-based; conditions: for Papp at 50 µM: PAMPA, pH 6.2
[15] = test system: Human immunodeficiency virus 1; assay: Antiviral activity against HIV1 QD435.100MENV.E1 clinical isolate infected in human TZM-bl cells assessed as inhibition of viral growth incubated for 48 hrs by luciferase based analysis; assay type: functional, organism-based; conditions: Human immunodeficiency virus 1, QD435.100MENV.E1, TZM-bl
[16] = Apparent permeability of the compound across blood brain barrier in PBS buffer at pH 7.4 at 15 uM by PAMPA analysis; assay type: ADME, tissue-based
[17] = target: T1, Envelope glycoprotein gp160; assay: Binding affinity to HIV1 GP41 using GP41 NHR derived N36 peptide assessed as binding constant in presence of C34 by fluorescence polarization assay
[18] = Apparent permeability of the compound across blood brain barrier in PBS buffer at pH 7.4 at 25 uM by PAMPA analysis; assay type: ADME, tissue-based
[19] = Apparent permeability of the compound across gastrointestinal tract in PBS buffer at pH 6.2 at 200 uM by PAMPA analysis; assay type: ADME, tissue-based
[20] = Apparent permeability of the compound across gastrointestinal tract in PBS buffer at pH 5 at 200 uM by PAMPA analysis; assay type: ADME, tissue-based
[21] = Apparent permeability of the compound across gastrointestinal tract in PBS buffer at pH 7.4 at 200 uM by PAMPA analysis; assay type: ADME, tissue-based
in vitro = conditions: PAMPA, pH 7.4
Description: Apparent permeability of the compound across blood brain barrier in PBS buffer at pH 7.4 at 250 uM by PAMPA analysis

Compound: CC[C@@H](C)[C@@H](CN(CC(=O)N[C@@H](CCC(=O)O)CN(CC(=O)N[C@@H](CC(C)C)CN(CC(N)=O)S(=O)(=O)CC(C)C)S(=O)(=O)c1ccc(C(=O)O)cc1)S(=O)(=O)CC(C)C)NC(=O)CN(C[C@H](CCCCN)NC(=O)CN(C[C@H](Cc1ccc(O)cc1)NC(=O)CN(C[C@H](CCC(=O)O)NC(=O)CN(C[C@@H](NC(=O)CN(C[C@H](CCCCN)NC(=O)CN(C[C@H](Cc1c[nH]c2ccccc12)NC(=O)CN(C[C@H](CCC(=O)O)NC(=O)CN(C[C@H](Cc1c[nH]c2ccccc12)NC(=O)CN(C[C@H](CCSC)NC(C)=O)S(=O)(=O)c1ccc(OC)cc1)S(=O)(=O)CC(C)C)S(=O)(=O)c1ccc(C(=O)O)cc1)S(=O)(=O)CC(C)C)S(=O)(=O)CCN)[C@H](C)CC)S(=O)(=O)CC(C)C)S(=O)(=O)c1ccc(C(=O)O)cc1)S(=O)(=O)CC(C)C)S(=O)(=O)CCN
- selectivity ratio [1]: > 10
- Stability [2]: Stable
- IC50 [3]: 4000 nM
- CC50 at 72 h [4]: > 40000 nM

Compound: CCCCCCCCCCCCCCCCCC(=O)NCCCC[C@H](NC(=O)CN(C[C@H](CC(C)C)NC(=O)CN(C[C@H](CCC(=O)O)NC(=O)CN(C[C@@H](NC(=O)CN(C[C@H](CCCCN)NC(=O)CN(C[C@H](Cc1ccc(O)cc1)NC(=O)CN(C[C@H](CCC(=O)O)NC(=O)CN(C[C@@H](NC(=O)CN(C[C@H](CCCCN)NC(=O)CN(C[C@H](Cc1c[nH]c2ccccc12)NC(=O)CN(C[C@H](CCC(=O)O)NC(=O)CN(C[C@H](Cc1c[nH]c2ccccc12)NC(=O)CN(C[C@H](CCSC)NC(C)=O)S(=O)(=O)c1ccc(OC)cc1)S(=O)(=O)CC(C)C)S(=O)(=O)c1ccc(C(=O)O)cc1)S(=O)(=O)CC(C)C)S(=O)(=O)CCN)[C@H](C)CC)S(=O)(=O)CC(C)C)S(=O)(=O)c1ccc(C(=O)O)cc1)S(=O)(=O)CC(C)C)S(=O)(=O)CCN)[C@H](C)CC)S(=O)(=O)CC(C)C)S(=O)(=O)c1ccc(C(=O)O)cc1)S(=O)(=O)CC(C)C)C(N)=O
- IC50 [5]: 940 nM
- IC50 [6]: 61 nM
- selectivity ratio [1]: 106
- Kd [7]: 670 nM
- Papp at 50 µM [8]: 520 ×10⁻⁶ cm/s
- Papp at 50 µM [9]: 610 ×10⁻⁶ cm/s
- IC50 [3]: 180 nM
- IC50 [10]: 64.7 nM
- IC50 [11]: 84.4 nM
- CC50 at 72 h [4]: 19300 nM
- IC50 [12]: 88.8 nM
- IC50 [13]: 60.4 nM
- Papp at 50 µM [14]: 522 ×10⁻⁶ cm/s
- IC50 [15]: 85.3 nM
- Papp at 15 µM [16]: 256 ×10⁻⁶ cm/s
- Kd [17]: > 46000 nM

Compound: CC[C@@H](C)[C@@H](CN(CC(=O)N[C@@H](CCC(=O)O)CN(CC(=O)N[C@@H](CC(C)C)CN(CC(N)=O)S(=O)(=O)CC(C)C)S(=O)(=O)c1ccc(C(=O)O)cc1)S(=O)(=O)CC(C)C)NC(=O)CN(C[C@H](CCCCN)NC(=O)CN(C[C@H](Cc1ccc(O)cc1)NC(=O)CN(C[C@H](CCC(=O)O)NC(=O)CN(C[C@@H](NC(=O)CN(C[C@H](CCCCN)NC(=O)CN(C[C@H](Cc1c[nH]c2ccccc12)NC(=O)CN(C[C@H](CCC(=O)O)NC(=O)CN(C[C@H](Cc1c[nH]c2ccccc12)NC(=O)CN(C[C@H](CCSC)NC(C)=O)S(=O)(=O)CC(C)C)S(=O)(=O)CC(C)C)S(=O)(=O)c1ccc(C(=O)O)cc1)S(=O)(=O)CC(C)C)S(=O)(=O)CCN)[C@H](C)CC)S(=O)(=O)CC(C)C)S(=O)(=O)c1ccc(C(=O)O)cc1)S(=O)(=O)CC(C)C)S(=O)(=O)CCN
- selectivity ratio [1]: > 1.3
- Stability [2]: Stable
- IC50 [3]: 30000 nM
- CC50 at 72 h [4]: > 40000 nM

Compound: CCCCCCCCCCCCCCCCCC(=O)NCCCC[C@H](NC(=O)CN(C[C@H](CC(C)C)NC(=O)CN(C[C@H](CCC(=O)O)NC(=O)CN(C[C@@H](NC(=O)CN(C[C@H](CCCCN)NC(=O)CN(C[C@H](Cc1ccc(O)cc1)NC(=O)CN(C[C@H](CCC(=O)O)NC(=O)CN(C[C@@H](NC(=O)CN(C[C@H](CCCCN)NC(=O)CN(C[C@H](Cc1c[nH]c2ccccc12)NC(=O)CN(C[C@H](CCC(=O)O)NC(=O)CN(C[C@H](Cc1c[nH]c2ccccc12)NC(=O)CN(C[C@H](CCSC)NC(C)=O)S(=O)(=O)CC(C)C)S(=O)(=O)CC(C)C)S(=O)(=O)c1ccc(C(=O)O)cc1)S(=O)(=O)CC(C)C)S(=O)(=O)CCN)[C@H](C)CC)S(=O)(=O)CC(C)C)S(=O)(=O)c1ccc(C(=O)O)cc1)S(=O)(=O)CC(C)C)S(=O)(=O)CCN)[C@H](C)CC)S(=O)(=O)CC(C)C)S(=O)(=O)c1ccc(C(=O)O)cc1)S(=O)(=O)CC(C)C)C(N)=O
- Papp at 25 µM [18]: 234 ×10⁻⁶ cm/s
- IC50 [5]: 81.3 nM
- IC50 [6]: 46.7 nM
- selectivity ratio [1]: > 41
- Papp at 50 µM [8]: 390 ×10⁻⁶ cm/s
- Papp at 50 µM [9]: 602 ×10⁻⁶ cm/s
- IC50 [3]: 980 nM
- IC50 [10]: 124 nM
- IC50 [11]: 154 nM
- CC50 at 72 h [4]: > 40000 nM
- IC50 [12]: 87.8 nM
- IC50 [13]: 89 nM
- Papp at 50 µM [14]: 617 ×10⁻⁶ cm/s
- IC50 [15]: 84.9 nM

Compound: Cc1cc(=O)n(-c2ccccc2)n1C [ANTIPYRINE]
- Papp at 200 µM [19]: < 1 ×10⁻⁶ cm/s
- Papp at 200 µM [20]: < 1 ×10⁻⁶ cm/s

Compound: NC(=O)N1c2ccccc2C=Cc2ccccc21 [CARBAMAZEPINE]
- Papp at 200 µM [21]: < 1 ×10⁻⁶ cm/s
- Papp at 50 µM [8]: 152 ×10⁻⁶ cm/s
- Papp ([9]; pampa, pH 5, 50 µM): 134.41 10^-6 cm/s
- Papp ([14]; pampa, pH 6.2, 50 µM): 141.28 10^-6 cm/s

Compound: Cn1c(=O)c2[nH]cnc2n(C)c1=O.O [THEOPHYLLINE]
- Papp at 250 µM (in vitro): < 10 ×10⁻⁶ cm/s

Compound: enfuvirtide
- IC50 [5]: 3 nM
- IC50 [6]: 6.5 nM
- IC50 [10]: 28.4 nM
- IC50 [11]: 50.8 nM
- IC50 [12]: 15.7 nM
- IC50 [13]: 28.4 nM
- IC50 [15]: 72 nM

— ChEMBL document CHEMBL5365482, “Rational Design of Sulfonyl-γ-AApeptides as Highly Potent HIV-1 Fusion Inhibitors with Broad-Spectrum Activity” (J Med Chem, 2023)
